In one assay the test system is A549. Kind of assay: Cytotoxicity assay, viable cell count. The class given is cell-based. To be noted: Homo sapiens; A549, NSCLC; 96 h continuous treatment, trypan blue. The protocol:
(§1) Cells (1×10^5) were plated into 6-well dishes and 24 h later 8-cyclopentyl-2-((4-(4-methylpiperazin-1-yl)phenyl)amino)-7-oxo-7,8-dihydropyrido[2,3-d]pyrimidine-6-carbonitrile (12) was added at five different concentrations over a 2 log dilution (1-100 μM). The total number of viable cells was determined after 96 h of continuous treatment by staining with trypan blue and counting the number of non-staining cells (viable) remaining in each well using a hemacytometer. The percentage of viable cells remaining was calculated as follows: # viable cells (compound treated)/# viable cells (DMSO treated)*100.

For another assay, the system named is COLO-205. Kind of assay: Cytotoxicity assay, viable cell count. It counts as cell-based. To be noted: Homo sapiens; COLO-205, Colon; 96 h continuous treatment, trypan blue. How it is done:
as §1

A further assay deals with GRANTA-519. Briefly: Cytotoxicity assay, viable cell count. The class given is cell-based. The following applies: Homo sapiens; GRANTA-519, MCL; 96 h continuous treatment, trypan blue. How it is done: as §1
Another assay relates to HCT-15. Briefly: Cytotoxicity assay, viable cell count. The following applies: Homo sapiens; HCT-15, Colon (MDR elevated); 96 h continuous treatment, trypan blue. It counts as cell-based. The protocol:
as §1

The test system of the next assay is JURKAT. Kind of assay: Cytotoxicity assay, viable cell count. To be noted: Homo sapiens, T-Cell Lymphoma, 96 h continuous treatment, trypan blue. It counts as cell-based. How it is done: as §1
The next assay concerns MCF-7. Kind of assay: Cytotoxicity assay, viable cell count. It counts as cell-based. The following applies: Homo sapiens, MCF7; MCF-7, ER + Breast; 96 h continuous treatment, trypan blue. The protocol: as §1
The test system of the next assay is MIA-PaCa-2. Kind of assay: Cytotoxicity assay, viable cell count. It counts as cell-based. The following applies: Homo sapiens; MIA-PaCa-2, Pancreatic; 96 h continuous treatment, trypan blue. How it is done: as §1
The next assay deals with N87. Kind of assay: Cytotoxicity assay, viable cell count. The class given is cell-based. The following applies: N87, Gastric(ErbB2+); 96 h continuous treatment, trypan blue. How it is done: as §1
Another assay relates to SK-OV-3. Kind of assay: Cytotoxicity assay, viable cell count. The following applies: Homo sapiens; SK-OV-3, Ovarian; 96 h continuous treatment, trypan blue. The class given is cell-based. The protocol:
as §1

The test system of the next assay is SNU-475. Briefly: Cytotoxicity assay, viable cell count. To be noted: Homo sapiens; SNU-475, Hepatocellular carcinoma; 96 h continuous treatment, trypan blue. The class given is cell-based. How it is done:
as §1

The test system of another assay is SW480. Kind of assay: Cytotoxicity assay, viable cell count. The class given is cell-based. The following applies: Homo sapiens; SW480, COLO-RECTAL; 96 h continuous treatment, trypan blue. The protocol: as §1
The subject of a further assay is U266. Briefly: Cytotoxicity assay, viable cell count. The class given is cell-based. The following applies: Homo sapiens, U-266; U266, Multiple Myeloma; 96 h continuous treatment, trypan blue. The protocol: as §1
The test system of the next assay is U87. Briefly: Cytotoxicity assay, viable cell count. The class given is cell-based. The following applies: Homo sapiens, U-87 MG; U87, Glioblastoma; 96 h continuous treatment, trypan blue. How it is done: as §1
The target in assay [1] is T1, His-tagged full length ARK5 (Homo sapiens, UniProt O60285).
T1 construct: 20 ng His-tagged full length ARK5 (Invitrogen PV4127); His; purchased Invitrogen PV4127
T1 sequence (O60285 1-661): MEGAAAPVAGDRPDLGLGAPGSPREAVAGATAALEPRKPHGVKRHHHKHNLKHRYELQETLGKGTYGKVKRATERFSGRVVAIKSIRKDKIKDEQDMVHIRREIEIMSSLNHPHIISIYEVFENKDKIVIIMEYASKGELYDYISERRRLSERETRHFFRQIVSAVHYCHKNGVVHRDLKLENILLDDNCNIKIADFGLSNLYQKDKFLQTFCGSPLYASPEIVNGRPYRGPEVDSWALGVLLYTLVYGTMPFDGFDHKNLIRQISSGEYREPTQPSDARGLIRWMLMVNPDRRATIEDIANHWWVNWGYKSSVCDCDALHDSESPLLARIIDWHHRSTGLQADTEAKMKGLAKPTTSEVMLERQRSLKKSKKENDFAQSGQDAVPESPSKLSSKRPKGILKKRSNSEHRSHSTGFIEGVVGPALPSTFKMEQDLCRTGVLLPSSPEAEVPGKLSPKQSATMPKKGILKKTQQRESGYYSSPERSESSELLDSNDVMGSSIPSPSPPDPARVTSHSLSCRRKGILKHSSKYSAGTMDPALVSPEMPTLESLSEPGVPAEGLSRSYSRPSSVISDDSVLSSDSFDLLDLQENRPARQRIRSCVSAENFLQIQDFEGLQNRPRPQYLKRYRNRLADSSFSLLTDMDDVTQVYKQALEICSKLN
Briefly: ARK5 Kinase Assay (ARK5 Inhibition Assay). It counts as biochemical. The following applies: CHKtide substrate, 1 μM ATP. The protocol:
20 ng His-tagged full length ARK5 (Invitrogen PV4127), a protein kinase, was diluted into kinase buffer (25 mM HEPES pH 7.5, 10 mM MgCl2, 0.5 mM EGTA, 0.5 mM Na3V04, 5 mM β Glycerophosphate, 2.5 mM DTT, 0.01% Triton X-100) and incubated with the indicated concentration of a compound of Table 3 at room temperature for 30 minutes. The kinase reactions were then initiated by the addition of 1 μg (3.28 μM) CHKtide substrate peptide (Upstate 12-414), 1 μM ATP and 10 μCi γ^32 P-ATP. The reactions were incubated at 30° C. for 10 minutes.
Subsequently, the reactions were stopped by adding 3% phosphoric acid. A 10 μl aliquot was then transferred to an appropriate area of a p30 filtermat. The filtermat was allowed to dry for 20 minutes at room temperature and then washed three times with 75 mM phosphoric acid and twice with methanol. The filtermat was then dried for 20 minutes at room temperature. The filtermat was then exposed to X ray film or read in a scintillation counter. The scintillation counting values were plotted as function of log drug concentration using Prism 4 Graph pad software and IC50 values determined by plotting sigmoidal non-linear regression curves with variable slope.

The target of the next assay is ARK5 (Homo sapiens, UniProt O60285). Briefly: Kinase inhibition panel. The following applies: 10 μM ATP. It counts as biochemical.
In a further assay the target is CDK9/cyclinT1 (Homo sapiens, UniProt P50750). Kind of assay: Kinase inhibition panel. The following applies: 10 μM ATP. It counts as biochemical.
Chain of CDK9/cyclinT1 (P50750 whole entry, species assumed): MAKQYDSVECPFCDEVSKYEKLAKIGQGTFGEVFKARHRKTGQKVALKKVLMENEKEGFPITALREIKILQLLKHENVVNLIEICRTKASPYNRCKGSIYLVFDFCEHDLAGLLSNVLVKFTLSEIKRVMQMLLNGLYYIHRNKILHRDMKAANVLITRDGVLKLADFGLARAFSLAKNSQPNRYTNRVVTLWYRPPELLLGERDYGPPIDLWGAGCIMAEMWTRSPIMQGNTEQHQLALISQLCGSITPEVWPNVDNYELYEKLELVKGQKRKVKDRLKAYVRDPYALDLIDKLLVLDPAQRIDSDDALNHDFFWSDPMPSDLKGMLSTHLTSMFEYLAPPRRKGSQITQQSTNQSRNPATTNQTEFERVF
Chain of CDK9/cyclinT1 (O60563 whole entry partner, species assumed): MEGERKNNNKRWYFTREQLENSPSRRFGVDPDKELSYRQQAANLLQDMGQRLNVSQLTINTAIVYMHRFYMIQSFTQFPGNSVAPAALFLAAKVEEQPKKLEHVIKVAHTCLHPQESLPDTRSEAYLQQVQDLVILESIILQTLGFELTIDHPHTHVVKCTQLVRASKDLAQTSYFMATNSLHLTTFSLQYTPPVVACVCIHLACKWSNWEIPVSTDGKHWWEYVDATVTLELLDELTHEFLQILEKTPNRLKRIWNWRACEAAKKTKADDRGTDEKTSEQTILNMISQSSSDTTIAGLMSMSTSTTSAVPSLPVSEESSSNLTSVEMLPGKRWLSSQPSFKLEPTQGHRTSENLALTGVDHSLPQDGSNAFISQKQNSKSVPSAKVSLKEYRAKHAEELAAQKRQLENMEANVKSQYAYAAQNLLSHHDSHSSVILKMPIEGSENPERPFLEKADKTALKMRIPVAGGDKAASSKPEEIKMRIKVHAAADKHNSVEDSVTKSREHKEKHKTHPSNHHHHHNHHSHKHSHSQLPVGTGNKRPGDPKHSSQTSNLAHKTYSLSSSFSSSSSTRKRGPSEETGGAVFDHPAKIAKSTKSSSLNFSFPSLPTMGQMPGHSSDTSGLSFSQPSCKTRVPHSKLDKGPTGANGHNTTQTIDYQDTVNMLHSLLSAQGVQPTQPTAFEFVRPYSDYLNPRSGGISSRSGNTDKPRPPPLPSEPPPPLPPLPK
The next assay has as its target EphB2/HEK5 (Homo sapiens, UniProt P29323). Briefly: Kinase inhibition panel. The class given is biochemical. The following applies: 10 μM ATP.
In the next assay the target is FRK/PTK5 (Homo sapiens, UniProt P42685). Briefly: Kinase inhibition panel. The class given is biochemical. The following applies: 10 μM ATP.
Chain of FRK/PTK5 (P42685 whole entry): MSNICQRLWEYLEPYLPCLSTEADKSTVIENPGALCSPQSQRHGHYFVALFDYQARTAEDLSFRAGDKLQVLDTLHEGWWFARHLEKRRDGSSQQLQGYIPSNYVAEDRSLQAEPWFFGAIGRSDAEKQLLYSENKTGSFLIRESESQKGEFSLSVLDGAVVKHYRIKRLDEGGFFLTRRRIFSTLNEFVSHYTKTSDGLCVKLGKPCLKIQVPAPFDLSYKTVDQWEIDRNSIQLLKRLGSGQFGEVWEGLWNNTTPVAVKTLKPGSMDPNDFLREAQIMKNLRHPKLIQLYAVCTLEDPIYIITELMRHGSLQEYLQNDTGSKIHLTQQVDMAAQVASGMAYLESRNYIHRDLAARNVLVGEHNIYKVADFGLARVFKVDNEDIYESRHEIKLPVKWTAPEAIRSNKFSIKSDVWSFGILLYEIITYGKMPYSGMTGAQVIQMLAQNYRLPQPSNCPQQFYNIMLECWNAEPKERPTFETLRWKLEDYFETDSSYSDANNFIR
Another assay addresses TAOK1 (Homo sapiens, UniProt Q7L7X3). Briefly: Kinase inhibition panel. The class given is biochemical. The following applies: 10 μM ATP.
Another assay concerns the target YES/YES1 (Homo sapiens, UniProt P07947). Kind of assay: Kinase inhibition panel. The following applies: 10 μM ATP. The class given is biochemical.

The results in this text go back to patent US8987267B2, “2-substituted-8-alkyl-7-OXO-7,8-dihydropyrido[2,3-D]pyrimidine-6-carbonitriles and uses thereof in treating proliferative disorders” (Temple University—of the Commonwealth System of Higher …, priority 2010, dated 2015).

What is called GI50 is the concentration that inhibits growth by half. The IC50 is the concentration that gives 50% inhibition.

Each structure is given as a SMILES string.

Chain of EphB2/HEK5 (P29323 19-1055): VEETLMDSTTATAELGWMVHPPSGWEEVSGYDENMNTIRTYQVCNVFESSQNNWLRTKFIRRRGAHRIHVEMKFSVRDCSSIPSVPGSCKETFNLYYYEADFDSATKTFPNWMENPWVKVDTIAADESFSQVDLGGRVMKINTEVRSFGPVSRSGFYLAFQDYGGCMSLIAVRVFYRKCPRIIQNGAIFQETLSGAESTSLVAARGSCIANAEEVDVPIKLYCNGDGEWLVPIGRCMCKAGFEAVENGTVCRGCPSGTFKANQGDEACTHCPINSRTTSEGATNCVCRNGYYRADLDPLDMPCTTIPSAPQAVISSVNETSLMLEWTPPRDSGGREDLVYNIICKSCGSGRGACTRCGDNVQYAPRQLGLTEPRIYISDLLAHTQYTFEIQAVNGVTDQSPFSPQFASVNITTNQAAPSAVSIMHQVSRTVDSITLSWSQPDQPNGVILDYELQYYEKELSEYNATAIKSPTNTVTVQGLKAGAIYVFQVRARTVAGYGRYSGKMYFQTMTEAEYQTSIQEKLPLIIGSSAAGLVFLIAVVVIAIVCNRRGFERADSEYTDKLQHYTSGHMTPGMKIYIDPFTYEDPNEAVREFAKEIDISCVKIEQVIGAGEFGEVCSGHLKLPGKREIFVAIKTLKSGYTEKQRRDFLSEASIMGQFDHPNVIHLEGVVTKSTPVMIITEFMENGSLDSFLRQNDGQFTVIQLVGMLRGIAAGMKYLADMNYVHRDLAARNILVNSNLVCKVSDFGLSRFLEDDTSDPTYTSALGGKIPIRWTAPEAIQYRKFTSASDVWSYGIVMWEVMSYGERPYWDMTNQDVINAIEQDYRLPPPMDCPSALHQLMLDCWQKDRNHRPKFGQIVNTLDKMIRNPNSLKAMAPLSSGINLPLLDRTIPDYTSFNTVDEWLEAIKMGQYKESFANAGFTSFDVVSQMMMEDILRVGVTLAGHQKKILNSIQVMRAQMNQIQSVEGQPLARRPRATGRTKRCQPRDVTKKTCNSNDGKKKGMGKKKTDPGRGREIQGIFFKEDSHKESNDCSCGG
Chain of TAOK1 (Q7L7X3 whole entry, species assumed): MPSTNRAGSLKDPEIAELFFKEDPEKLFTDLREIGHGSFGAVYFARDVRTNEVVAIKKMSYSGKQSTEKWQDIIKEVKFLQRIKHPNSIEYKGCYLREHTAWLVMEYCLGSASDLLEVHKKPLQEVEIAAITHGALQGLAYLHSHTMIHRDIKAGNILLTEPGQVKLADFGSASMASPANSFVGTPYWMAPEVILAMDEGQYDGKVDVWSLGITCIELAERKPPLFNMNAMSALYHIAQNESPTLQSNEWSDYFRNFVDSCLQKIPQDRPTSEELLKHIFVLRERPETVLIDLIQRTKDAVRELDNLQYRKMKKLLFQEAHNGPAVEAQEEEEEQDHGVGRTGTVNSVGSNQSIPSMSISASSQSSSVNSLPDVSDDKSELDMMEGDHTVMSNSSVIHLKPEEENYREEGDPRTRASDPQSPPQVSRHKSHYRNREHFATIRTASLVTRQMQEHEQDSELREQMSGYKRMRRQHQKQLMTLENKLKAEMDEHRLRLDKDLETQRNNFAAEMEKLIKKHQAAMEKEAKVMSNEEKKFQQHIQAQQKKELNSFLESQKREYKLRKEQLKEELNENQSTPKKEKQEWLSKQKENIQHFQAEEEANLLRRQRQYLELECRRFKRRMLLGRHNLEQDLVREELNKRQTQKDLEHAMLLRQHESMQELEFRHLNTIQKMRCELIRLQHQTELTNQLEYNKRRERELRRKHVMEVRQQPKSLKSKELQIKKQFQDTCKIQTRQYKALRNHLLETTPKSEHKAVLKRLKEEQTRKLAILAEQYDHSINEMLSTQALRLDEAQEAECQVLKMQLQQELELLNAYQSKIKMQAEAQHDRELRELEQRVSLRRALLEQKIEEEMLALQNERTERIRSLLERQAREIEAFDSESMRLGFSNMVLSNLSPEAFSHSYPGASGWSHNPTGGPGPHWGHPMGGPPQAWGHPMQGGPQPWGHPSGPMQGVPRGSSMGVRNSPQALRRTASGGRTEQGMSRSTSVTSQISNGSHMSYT
Chain of YES/YES1 (P07947 whole entry): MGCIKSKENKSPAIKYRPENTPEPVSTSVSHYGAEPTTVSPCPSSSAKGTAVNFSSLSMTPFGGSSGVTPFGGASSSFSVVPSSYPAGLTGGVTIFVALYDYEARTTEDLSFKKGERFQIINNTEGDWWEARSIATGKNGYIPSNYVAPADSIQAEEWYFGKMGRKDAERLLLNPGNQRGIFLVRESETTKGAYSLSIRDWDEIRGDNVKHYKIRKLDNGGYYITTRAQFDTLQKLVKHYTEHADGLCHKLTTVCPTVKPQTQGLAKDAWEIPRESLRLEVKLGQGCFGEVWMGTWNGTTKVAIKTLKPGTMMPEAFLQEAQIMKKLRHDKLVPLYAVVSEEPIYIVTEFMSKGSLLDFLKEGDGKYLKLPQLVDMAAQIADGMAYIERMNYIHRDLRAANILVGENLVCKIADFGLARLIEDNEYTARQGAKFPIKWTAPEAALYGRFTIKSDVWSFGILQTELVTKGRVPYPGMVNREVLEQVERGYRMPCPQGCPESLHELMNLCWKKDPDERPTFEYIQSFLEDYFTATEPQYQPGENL

On to `CN1CCN(c2ccc(Nc3ncc4cc(C#N)c(=O)n(C5CCCC5)c4n3)cc2)CC1` [Compound 12, 8-cyclopentyl-2-((4-(4-methylpiperazin-1-yl)phenyl)amino)-7-oxo-7,8-dihydropyrido[2,3-d]pyrimidine-6-carbonitrile], for which the GI50 in the assay with A549 worked out at 200 nM; with COLO-205 it was 200 nM; in the assay on GRANTA-519, 75 nM; in the assay on HCT-15, 400 nM; in the assay with JURKAT, 150 nM; in the assay on MCF-7, 150 nM. In addition, the concentration for 50% growth inhibition (GI50) with MIA-PaCa-2 is 250 nM; in the assay with N87, 900 nM; in the assay with SK-OV-3 it was 750 nM; with SNU-475 it was 300 nM; in the assay with SW480 it was 100 nM; in the assay with U266, 200 nM. Further, the GI50 with U87 stood at 100 nM. Further, the IC50 was found to be 27.3 nM in assay [1]; 7.85 nM on ARK5; 85.4 nM against CDK9/cyclinT1; 130 nM on EphB2/HEK5; 575 nM against FRK/PTK5; 78.7 nM at TAOK1. In addition, the IC50 against YES/YES1 worked out at 38.1 nM.
